Key:
[1] = test system: Human mesenchymal stem cells (hMSC); test: Cell proliferation (MTS) of hMSC treated with RSV, NAM or RSV+NAM; type: cell-based; conditions: 48 hours, serum-free media, normoxia, increasing dose, vs DMSO control
Description: Human mesenchymal stem cells (hMSC) were obtained from American Type Culture Collection (ATCC, Manassas, VA). Cells were stored in liquid nitrogen until use. MSCs were maintained in minimum essential medium, alpha (aMEM, Corning®, Corning, NY) supplemented with 16% Fetal Bovine Serum (FBS, VWR, Radnor, PA) and 4 mM L-glutamine (Sigma-Aldrich, St. Louis, MO). Medium was changed every other day, and once the cells reached 70-80% confluence, the cells were detached by trypsin-EDTA solution (VWR, Radnor, PA). hMSC were seeded (density 5,000 cells/cm^2) on 25 cm^2. When cells reached 80% confluency (4-5 days), they were washed two times with 5 ml of PBS. The growth media was then changed to serum-free media with or without a product treatment (5 ml), and the cells were cultured for 48 hours. […] Cell proliferation was assessed using CellTiter 96® AQueous Non-Radioactive Cell Proliferation Assay (MTS, Promega, Madison WI) based on the redox conversion of a tetrazolium salt into formazan product. […] The cells were incubated for 2 hours, and the absorbance of each well at 490 nm was measured using a SpectraMax® 190 Microplate Reader. Cell proliferation was determined using MTS, colorimetric assay after the cells were treated for 48 hours in serum free media with the vehicle (DMSO) as control, resveratrol (RSV), nicotinamide (NAM), or a combination (RSV+NAM) in serum-free media under normoxia. […]

hMSC secretome = test: LC-MS/MS analysis of secreted proteins in the secretome; type: cell-based, human; conditions: n=4; for number of down-regulated proteins (Fold ≤ 1.5) vs control / number of up-regulated proteins (Fold ≥ 1.5) vs control: vs DMSO under normoxia
Description: Human mesenchymal stem cells (hMSC) were obtained from American Type Culture Collection (ATCC, Manassas, VA). Cells were stored in liquid nitrogen until use. MSCs were maintained in minimum essential medium, alpha (aMEM, Corning®, Corning, NY) supplemented with 16% Fetal Bovine Serum (FBS, VWR, Radnor, PA) and 4 mM L-glutamine (Sigma-Aldrich, St. Louis, MO). Medium was changed every other day, and once the cells reached 70-80% confluence, the cells were detached by trypsin-EDTA solution (VWR, Radnor, PA). hMSC were seeded (density 5,000 cells/cm^2) on 25 cm^2. When cells reached 80% confluency (4-5 days), they were washed two times with 5 ml of PBS. The growth media was then changed to serum-free media with or without a product treatment (5 ml), and the cells were cultured for 48 hours. Experiments were performed in two different environments, normoxia (about 18.6% oxygen) and hypoxia (5% oxygen). Cells were incubated at 37° C. and 5% CO2 throughout the experiment.
To characterize the hMSC secretome, condition media (CM or secretome) was collected from cells cultured under FBS-free for 48 hours. CM was filtered through a 0.45 μm syringe filter to remove residual cells and cell debris. The resulting condition media was concentrated and washed 3 times with 50 mM ammonium bicarbonate using Corning® Spin-X® UF Concentrators (10K Dalton, Corning®, Corning, NY) at 3,000 g for 25 minutes each cycle. Following, the secretome was collected from the concentrator, frozen at −80° C., and lyophilized 24 hours. Lyophilized secretome was stored at −80° C. For functional experiments with CM, normal hMSCs (passages 6-8) were used.
The amount of secretome was normalized in all samples, and 50 μl of the sample were pipetted in microcentrifuge units (Millipore, Burlington, MA) and digested following the filter aided sample preparation (FASP) protein digestion kit from Expedeon (San Diego, CA). Samples were reduced using 0.1 M dithiothreitol for 15 minutes at 50° C. […] was achieved using iodoacetamide for 20 minutes at room temperature following by 2× washing steps with 8 M urea and 50 mM ammonium bicarbonate. The samples were then enzymatically digested with trypsin at 37° C. overnight. Finally, samples were collected by spinning the microcentrifuge units at 14000 rcf for 20 minutes with a final wash with distilled water and freeze-dried. Prior to LC-MS/MS analysis, samples were resuspended in 0.1% formic acid.
Mass spectrometry analysis was executed in the orbitrap Thermo Velos Pro system (Thermo Fisher Scientific, Waltman, MA) using Thermo Xcalibur™ Roadmap software (Thermo Fisher Scientific, Waltman, MA). For this study, secretome from 4 independent experiments were processed and analyzed independently.
Mass spectra were analyzed using Proteome Discoverer™ 2.1 (Thermo Fisher Scientific, Waltman, MA) label-free differential protein expression analysis and the Sequest™ HT. Xcalibur™ raw data collected from the mass spectrometer was imported from the MS spectra and processed as followed. Only features compromising charges of 2+ and 3+ were selected. The mass precision was 2 ppm and mass tolerance 0.02 Da for fragment mass tolerance. Trypsin was set as the digestion enzyme with a maximum of two allowed missed cleavages with six as the minimum peptide length. Cysteine carbamidomethylation (C) was set as a fixed modification, and N-terminal acetylation and methionine oxidation were allowed as variable modifications. The spectra were searched using the Sequest™ HT search engine against the human Uniprot sequence database. Percolator node was used to filter data using 0.1 for FDR at the peptide and protein level. For relative quantification in a label-free analysis, the precursor ion area detector node was used, and ratios were calculated by dividing the treated samples vs. the control group (DMSO under normoxia). […]

| SMILES | cell proliferation (MTS) versus control [1] | Total proteins (number of proteins secreted) (hMSC secretome; Hypoxia (5% O2)) | Unique vs control (number of unique proteins) (hMSC secretome; Hypoxia (5% O2)) | number of down-regulated proteins (Fold ≤ 1.5) vs control (hMSC secretome; Hypoxia (5% O2)) | number of up-regulated proteins (Fold ≥ 1.5) vs control (hMSC secretome; Hypoxia (5% O2)) | Total proteins (number of proteins secreted) (hMSC secretome; Normoxia) | Unique vs control (number of unique proteins) (hMSC secretome; Normoxia) | number of down-regulated proteins (Fold ≤ 1.5) vs control (hMSC secretome; Normoxia) | number of up-regulated proteins (Fold ≥ 1.5) vs control (hMSC secretome; Normoxia) |
| --- | --- | --- | --- | --- | --- | --- | --- | --- | --- |
| Oc1ccc(/C=C/c2cc(O)cc(O)c2)cc1 [RSV, 3,5,4′-trihydroxy-trans-stilbene] | not a significant difference | 55 | 2 | 0 | 30 | 51 | 2 | 3 | 7 |
| NC(=O)c1cccnc1 [nicotinamide] | not a significant difference | – | – | – | – | – | – | – | – |

Source: patent US20230365938A1, “METHODS OF FORMING COMPOSITIONS CONTAINING COLLAGEN” (priority 2019, published 2023)
